Results as given in article PMC8429728, “TNK1 is a ubiquitin-binding and 14-3-3-regulated kinase that can be targeted to block tumor growth” (Nature Communications, 2021).
Where two headings read alike, the source gives them in different places.

Key:
Experiment in all cases: biochemical
Set-up in all cases: Reaction Biology 371-kinase panel at Km ATP, per cent enzyme activity relative to DMSO, single dose in duplicate
Settings in all cases: duplicate measurements, Km ATP
CDK8/cyclin C = CDK8/cyclin C (Homo sapiens, UniProt P49336)
Chain of CDK8/cyclin C (P49336 whole entry): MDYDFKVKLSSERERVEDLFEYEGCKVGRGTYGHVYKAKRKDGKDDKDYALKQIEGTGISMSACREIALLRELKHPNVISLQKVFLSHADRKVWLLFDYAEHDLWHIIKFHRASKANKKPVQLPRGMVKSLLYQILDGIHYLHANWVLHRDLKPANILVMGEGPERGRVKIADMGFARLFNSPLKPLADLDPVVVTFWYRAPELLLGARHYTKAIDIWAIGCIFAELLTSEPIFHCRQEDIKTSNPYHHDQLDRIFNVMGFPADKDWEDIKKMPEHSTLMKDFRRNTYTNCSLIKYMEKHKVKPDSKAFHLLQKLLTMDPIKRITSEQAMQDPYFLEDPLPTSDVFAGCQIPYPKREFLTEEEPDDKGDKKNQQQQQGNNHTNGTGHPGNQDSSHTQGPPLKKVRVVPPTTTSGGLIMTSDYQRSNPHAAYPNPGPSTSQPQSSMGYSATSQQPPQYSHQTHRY
Chain of CDK8/cyclin C (P24863 whole entry partner): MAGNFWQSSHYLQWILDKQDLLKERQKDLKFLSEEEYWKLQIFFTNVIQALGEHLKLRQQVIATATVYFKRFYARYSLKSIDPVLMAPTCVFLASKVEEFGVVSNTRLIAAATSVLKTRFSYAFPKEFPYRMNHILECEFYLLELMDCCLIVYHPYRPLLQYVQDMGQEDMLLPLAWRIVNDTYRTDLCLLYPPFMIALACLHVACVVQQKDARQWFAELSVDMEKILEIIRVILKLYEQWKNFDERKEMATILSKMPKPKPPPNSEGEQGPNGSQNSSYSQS
Method: (§1) To assess kinase selectivity, we screened TP-5801 (300 nM) against a panel of 371 kinases in vitro. […] In addition to TNK1, only 7 other kinases were inhibited by more than 90% (Supplementary Fig. 8 and Supplementary Data 2). […] The resulting % Enzyme activity (relative to DMSO controls) were plotted in GraphPad and IC50 values were determined by sigmoidal dose-response (variable slope) curve fits, with a bottom constraint of 0.

CDK9/cyclin T2 = CDK9/cyclin T2 (Homo sapiens, UniProt P50750)
Chain of CDK9/cyclin T2 (P50750 whole entry): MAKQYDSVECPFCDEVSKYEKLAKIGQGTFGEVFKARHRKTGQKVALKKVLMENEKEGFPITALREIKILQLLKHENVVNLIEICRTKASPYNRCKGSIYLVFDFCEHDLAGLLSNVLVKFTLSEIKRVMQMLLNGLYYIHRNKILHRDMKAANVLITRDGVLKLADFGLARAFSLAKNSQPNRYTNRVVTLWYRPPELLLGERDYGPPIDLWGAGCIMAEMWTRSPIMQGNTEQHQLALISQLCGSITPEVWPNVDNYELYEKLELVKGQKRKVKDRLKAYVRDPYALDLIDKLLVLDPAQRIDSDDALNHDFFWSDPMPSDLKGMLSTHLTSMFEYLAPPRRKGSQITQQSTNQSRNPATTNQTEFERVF
Chain of CDK9/cyclin T2 (O60583 whole entry partner): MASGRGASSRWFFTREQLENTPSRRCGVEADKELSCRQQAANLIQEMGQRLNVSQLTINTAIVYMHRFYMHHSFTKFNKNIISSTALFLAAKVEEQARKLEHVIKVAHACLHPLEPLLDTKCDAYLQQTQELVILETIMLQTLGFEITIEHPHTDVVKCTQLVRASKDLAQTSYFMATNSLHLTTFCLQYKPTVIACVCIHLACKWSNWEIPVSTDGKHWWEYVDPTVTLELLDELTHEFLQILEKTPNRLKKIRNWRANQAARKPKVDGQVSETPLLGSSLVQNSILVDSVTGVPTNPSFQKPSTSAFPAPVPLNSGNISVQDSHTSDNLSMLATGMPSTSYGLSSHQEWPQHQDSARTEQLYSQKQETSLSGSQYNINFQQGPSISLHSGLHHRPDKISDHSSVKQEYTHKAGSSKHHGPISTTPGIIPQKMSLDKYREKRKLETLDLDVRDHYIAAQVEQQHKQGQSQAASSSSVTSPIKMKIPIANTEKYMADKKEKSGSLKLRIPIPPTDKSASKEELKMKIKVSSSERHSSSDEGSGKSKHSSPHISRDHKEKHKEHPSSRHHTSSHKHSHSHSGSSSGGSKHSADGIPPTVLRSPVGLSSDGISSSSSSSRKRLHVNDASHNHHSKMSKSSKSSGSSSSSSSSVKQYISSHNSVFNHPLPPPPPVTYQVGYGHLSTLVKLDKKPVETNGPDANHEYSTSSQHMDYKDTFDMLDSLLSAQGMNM
Method: as §1

CK1d = biological target: T1, CK1d (Homo sapiens, UniProt P48730)
T1 construct: gene CSNK1D
T1 sequence (P48730 whole entry): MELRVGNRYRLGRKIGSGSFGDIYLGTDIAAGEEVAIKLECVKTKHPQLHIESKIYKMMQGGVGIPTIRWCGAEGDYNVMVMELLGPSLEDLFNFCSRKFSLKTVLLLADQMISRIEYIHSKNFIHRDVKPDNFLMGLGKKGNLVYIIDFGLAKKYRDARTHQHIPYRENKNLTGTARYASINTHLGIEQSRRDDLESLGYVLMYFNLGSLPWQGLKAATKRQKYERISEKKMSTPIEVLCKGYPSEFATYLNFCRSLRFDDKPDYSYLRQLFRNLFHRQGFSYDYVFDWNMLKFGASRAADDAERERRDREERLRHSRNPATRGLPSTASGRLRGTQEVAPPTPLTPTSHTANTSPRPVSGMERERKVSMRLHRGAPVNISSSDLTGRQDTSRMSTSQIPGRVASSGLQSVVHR
Method: as §1

DDR2 = DDR2 (Homo sapiens, UniProt Q16832)
Method: as §1

DYRK3 = DYRK3 (Homo sapiens, UniProt O43781)
Method: as §1

FGFR1 = FGFR1 (Homo sapiens, UniProt P11362)
Method: as §1

IRAK1 = IRAK1 (Homo sapiens, UniProt P51617)
Method: as §1

MLK1/MAP3K9 = MLK1/MAP3K9 (Homo sapiens, UniProt P80192)
Chain of MLK1/MAP3K9 (P80192 whole entry): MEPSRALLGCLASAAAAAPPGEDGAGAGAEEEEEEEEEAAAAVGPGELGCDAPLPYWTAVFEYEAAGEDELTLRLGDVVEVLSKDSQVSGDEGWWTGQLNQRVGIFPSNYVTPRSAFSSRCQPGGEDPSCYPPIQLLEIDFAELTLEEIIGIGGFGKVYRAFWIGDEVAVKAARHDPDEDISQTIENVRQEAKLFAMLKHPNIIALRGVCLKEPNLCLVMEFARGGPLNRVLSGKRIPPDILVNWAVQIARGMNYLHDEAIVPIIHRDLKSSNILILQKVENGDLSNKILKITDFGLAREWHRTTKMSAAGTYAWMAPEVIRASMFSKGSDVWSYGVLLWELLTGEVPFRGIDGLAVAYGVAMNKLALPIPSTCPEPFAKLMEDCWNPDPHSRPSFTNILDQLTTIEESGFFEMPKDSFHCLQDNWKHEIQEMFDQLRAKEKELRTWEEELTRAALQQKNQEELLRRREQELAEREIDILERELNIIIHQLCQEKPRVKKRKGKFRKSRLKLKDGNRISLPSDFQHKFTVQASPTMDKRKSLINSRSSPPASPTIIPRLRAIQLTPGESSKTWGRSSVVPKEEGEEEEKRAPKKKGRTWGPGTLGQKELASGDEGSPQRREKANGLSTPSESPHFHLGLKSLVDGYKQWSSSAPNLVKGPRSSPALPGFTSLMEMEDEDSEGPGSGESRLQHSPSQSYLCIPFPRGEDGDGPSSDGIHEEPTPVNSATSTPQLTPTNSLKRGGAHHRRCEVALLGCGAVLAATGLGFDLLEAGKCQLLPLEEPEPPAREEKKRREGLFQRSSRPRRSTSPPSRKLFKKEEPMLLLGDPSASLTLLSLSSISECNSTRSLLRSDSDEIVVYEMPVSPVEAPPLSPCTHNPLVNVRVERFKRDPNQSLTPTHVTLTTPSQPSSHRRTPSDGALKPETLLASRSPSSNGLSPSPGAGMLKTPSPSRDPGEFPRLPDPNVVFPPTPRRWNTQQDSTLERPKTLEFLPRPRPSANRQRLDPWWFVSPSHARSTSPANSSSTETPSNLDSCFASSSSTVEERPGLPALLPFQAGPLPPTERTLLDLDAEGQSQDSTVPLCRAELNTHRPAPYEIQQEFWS
Method: as §1

MNK1 = biological target: T2, MNK1 (Homo sapiens, UniProt Q9BUB5)
T2 construct: gene MKNK1
T2 sequence (Q9BUB5 whole entry): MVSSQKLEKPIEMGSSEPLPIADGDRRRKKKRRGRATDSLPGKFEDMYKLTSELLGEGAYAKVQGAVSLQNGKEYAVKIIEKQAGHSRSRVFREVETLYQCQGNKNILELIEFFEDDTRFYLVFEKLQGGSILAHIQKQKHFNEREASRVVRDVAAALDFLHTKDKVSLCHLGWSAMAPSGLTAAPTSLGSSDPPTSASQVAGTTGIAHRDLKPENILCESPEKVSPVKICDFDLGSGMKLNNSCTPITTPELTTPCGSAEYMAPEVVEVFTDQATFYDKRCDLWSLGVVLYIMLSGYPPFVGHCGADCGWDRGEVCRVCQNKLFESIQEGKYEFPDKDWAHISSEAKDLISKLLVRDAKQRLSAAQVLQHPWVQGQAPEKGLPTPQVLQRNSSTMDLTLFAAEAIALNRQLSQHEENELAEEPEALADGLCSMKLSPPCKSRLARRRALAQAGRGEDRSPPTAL
Method: as §1

MSK1/RPS6KA5 = MSK1/RPS6KA5 (Homo sapiens, UniProt O75582)
Method: as §1

MST3/STK24 = MST3/STK24 (Homo sapiens, UniProt Q9Y6E0)
Chain of MST3/STK24 (Q9Y6E0 whole entry): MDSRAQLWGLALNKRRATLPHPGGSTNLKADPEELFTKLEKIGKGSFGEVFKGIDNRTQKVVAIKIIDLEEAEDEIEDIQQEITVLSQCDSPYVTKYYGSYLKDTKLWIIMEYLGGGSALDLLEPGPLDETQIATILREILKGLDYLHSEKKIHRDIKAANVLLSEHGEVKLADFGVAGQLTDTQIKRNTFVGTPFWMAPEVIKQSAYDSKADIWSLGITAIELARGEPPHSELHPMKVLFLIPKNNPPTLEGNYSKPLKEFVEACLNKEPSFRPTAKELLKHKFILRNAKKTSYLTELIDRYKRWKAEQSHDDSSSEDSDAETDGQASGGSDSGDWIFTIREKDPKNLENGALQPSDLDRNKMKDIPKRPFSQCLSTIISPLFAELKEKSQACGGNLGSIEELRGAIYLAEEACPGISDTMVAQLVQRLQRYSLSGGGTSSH
Method: as §1

RIPK2 = RIPK2 (Homo sapiens, UniProt O43353)
Chain of RIPK2 (O43353 whole entry): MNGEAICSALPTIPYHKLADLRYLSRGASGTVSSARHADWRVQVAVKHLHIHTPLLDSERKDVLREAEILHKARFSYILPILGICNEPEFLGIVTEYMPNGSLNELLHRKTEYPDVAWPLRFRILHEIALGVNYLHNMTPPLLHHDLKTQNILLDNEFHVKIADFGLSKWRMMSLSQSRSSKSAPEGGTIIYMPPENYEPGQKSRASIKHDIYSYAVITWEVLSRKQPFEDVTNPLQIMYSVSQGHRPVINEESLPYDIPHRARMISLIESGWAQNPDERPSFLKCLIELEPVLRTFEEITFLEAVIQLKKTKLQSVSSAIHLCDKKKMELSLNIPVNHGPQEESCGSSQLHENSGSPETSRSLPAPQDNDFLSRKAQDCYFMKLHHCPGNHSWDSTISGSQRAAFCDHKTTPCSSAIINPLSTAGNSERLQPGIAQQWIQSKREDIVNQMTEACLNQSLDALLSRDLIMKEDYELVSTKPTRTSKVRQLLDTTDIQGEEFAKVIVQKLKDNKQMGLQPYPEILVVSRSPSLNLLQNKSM
Method: as §1

TAOK2/TAO1 = TAOK2/TAO1 (Homo sapiens, UniProt Q9UL54)
Method: as §1

TLK1 = TLK1 (Homo sapiens, UniProt Q9UKI8)
Method: as §1

TNK1 = biological target: T3, TNK1 (Homo sapiens, UniProt Q13470)
T3 sequence (Q13470 1-666): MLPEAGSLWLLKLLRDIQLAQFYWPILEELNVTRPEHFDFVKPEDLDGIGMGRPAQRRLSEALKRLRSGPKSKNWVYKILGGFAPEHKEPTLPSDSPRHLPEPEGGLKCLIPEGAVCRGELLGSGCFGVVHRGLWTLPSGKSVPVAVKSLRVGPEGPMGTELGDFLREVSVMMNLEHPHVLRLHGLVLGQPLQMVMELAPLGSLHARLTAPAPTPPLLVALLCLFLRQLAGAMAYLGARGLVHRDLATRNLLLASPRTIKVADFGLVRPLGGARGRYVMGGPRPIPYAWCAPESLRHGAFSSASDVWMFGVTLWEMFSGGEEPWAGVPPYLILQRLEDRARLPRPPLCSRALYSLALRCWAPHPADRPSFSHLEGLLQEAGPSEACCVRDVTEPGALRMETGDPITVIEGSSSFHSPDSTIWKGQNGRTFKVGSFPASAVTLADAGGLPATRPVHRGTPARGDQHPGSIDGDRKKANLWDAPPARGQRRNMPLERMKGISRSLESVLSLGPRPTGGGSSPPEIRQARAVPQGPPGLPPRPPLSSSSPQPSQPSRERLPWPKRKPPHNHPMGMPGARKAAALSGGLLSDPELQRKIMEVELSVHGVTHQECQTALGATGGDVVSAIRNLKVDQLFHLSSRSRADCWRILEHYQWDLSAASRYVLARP
Method: as §1

[1] = read-out: % Enzyme Activity (relative to DMSO controls) / TP-0005801 (0.3µM) / Data 1
[2] = read-out: % Enzyme Activity (relative to DMSO controls) / TP-0005801 (0.3µM) / Data 2

`COc1cc(N2CCN(C)CC2)c(C)cc1Nc1ncc(Br)c(Nc2cccnc2N(C)C)n1` [TP-5801] gave a remaining activity at 0.3 µM (CDK8/cyclin C; [1]) of 31.9%, a remaining activity at 0.3 µM (CDK8/cyclin C; [2]) of 31.6% and a remaining activity at 0.3 µM (CDK9/cyclin T2; [1]) of 89.2%. For the same compound, the remaining activity at 0.3 µM (CDK9/cyclin T2; [2]) was 88.6%, the remaining activity at 0.3 µM (CK1d; [1]) was 101% and the remaining activity at 0.3 µM (CK1d; [2]) was 98.4%. The remaining activity at 0.3 µM (DDR2; [1]) was 77.1%, the remaining activity at 0.3 µM (DDR2; [2]) was 75.8% and the remaining activity at 0.3 µM (DYRK3; [1]) was 126%. For the same compound, the remaining activity at 0.3 µM (DYRK3; [2]) was 124%, the remaining activity at 0.3 µM (FGFR1; [1]) was 83.9% and the remaining activity at 0.3 µM (FGFR1; [2]) was 83.3%. The remaining activity at 0.3 µM (IRAK1; [1]) was 87.2%, the remaining activity at 0.3 µM (IRAK1; [2]) was 83.4% and the remaining activity at 0.3 µM (MLK1/MAP3K9; [1]) was 77.2%. It also gave a remaining activity at 0.3 µM (MLK1/MAP3K9; [2]) of 76.6%, a remaining activity at 0.3 µM (MNK1; [1]) of 92.5% and a remaining activity at 0.3 µM (MNK1; [2]) of 90.8%. The remaining activity at 0.3 µM (MSK1/RPS6KA5; [1]) was 127%, the remaining activity at 0.3 µM (MSK1/RPS6KA5; [2]) was 123% and the remaining activity at 0.3 µM (MST3/STK24; [1]) was 106%. The remaining activity at 0.3 µM (MST3/STK24; [2]) was 103%, the remaining activity at 0.3 µM (RIPK2; [1]) was 95.8% and the remaining activity at 0.3 µM (RIPK2; [2]) was 93.9%. It also gave a remaining activity at 0.3 µM (TAOK2/TAO1; [1]) of 86%, a remaining activity at 0.3 µM (TAOK2/TAO1; [2]) of 84.4% and a remaining activity at 0.3 µM (TLK1; [1]) of 103%. For the same compound, the remaining activity at 0.3 µM (TLK1; [2]) was 101%, the remaining activity at 0.3 µM (TNK1; [1]) was 0.98% and the remaining activity at 0.3 µM (TNK1; [2]) was 0.83%.
